{"source": "patent US12414960B2", "about": "“Analogues of oleuropein and oleacein and uses thereof” (Attica Sciences Ltd., priority 2020, dated 2025)", "key": {"HepG2 liver cancer cells": {"test_system": "HepG2 liver cancer cells", "test": "XTT cell growth assay, HepG2", "type": "cell-based, human", "conditions": "NS = not statistically significant; for inhibition at 50 µM: Homo sapiens, HepG2, 24 h, read-out: Effectiveness to suppress HepG2 cell growth (cell growth inhibition)", "from_the_text": "The XTT assay is used to measure cellular metabolic activity as an indicator of cell viability, proliferation and cytotoxicity. This non-radioactive, colorimetric assay system was first described by Scudiero, et al. in 1988 (Paull, Kenneth D. et al., J Heterocycl Chem, 1988, 25: 911-914; Scudiero, Dominic A. et al., Cancer Res, 1988, 48: 4827-4833) and improved in subsequent years by several other investigators (Weislow, Owen S. et al., J Natl Cancer Inst, 1989, 81(8): 577-586; Roehm, N. W. et al., J Immunol Methods, 1991, 142: 257-265).\nThe XTT assay is based on the reduction of a yellow tetrazolium salt (sodium 3′-[1-(phenylaminocarbonyl)-3,4-tetrazolium]-bis (4-methoxy6-nitro) benzene sulfonic acid hydrate or XTT) to an orange formazan dye by metabolically active cells (FIG. 8). The formazan dye formed is soluble in aqueous solutions and is directly quantified using a scanning multiwell spectrophotometer (ELISA reader). An increase in number of living cells results in an increase in the overall activity of mitochondrial dehydrogenases in the sample. This increase directly correlates to the amount of orange formazan formed, as monitored by the absorbance. Reduced number of living cells leads to reduced metabolism of quaternary salt and therefore reduced absorption.\nCell viability was assessed using the XTT assay kit (Roche, Mannheim, Germany) as described previously (Kouka, Paraskevi et al., Oxid Med Cell Longev. 2019, Article ID 1870965). Briefly, cancer cells per well were cultured in a 96-well plate in Dulbecco's modified Eagle's medium (DMEM). Following a 24 h incubation, 5, 10 and 50 μM of the tested GS compound was diluted in a serum-free DMEM and administered for 24 h. Subsequently, 50 μL of the XTT reagent (50:1) was added to each well. After 4 h of incubation, the absorbance was monitored at 450 nm and also at 630 nm as a reference wavelength in a BioTek ELx800 microplate reader (BioTek Instruments Inc., Winooski, VT, USA). As a negative control, samples containing serum-free DMEM only were used.\nHep G2 (or HepG2) is a human liver cancer cell line. Hep G2 is an immortal cell line which was derived from the liver tissue of an adolescent with a well-differentiated hepatocellular carcinoma. Hep G2 cells are a suitable in vitro model system for the study of polarized human hepatocytes.\nThe effects of exemplary compounds on cancer cell lines and one non-tumorigenic cell line (control) were investigated using a high throughput screening assay. More specifically, the effects of the GS compounds on cell growth was evaluated by the XTT assay for cell lines HepG2, HeLa, MCF7 ER+, MDA-MB-231, and MKN-45, and by the Cell Glo luminescence assay for cell lines MIA PaCa-2, HCT-116, MCF-10A, and PANC-1."}, "topoisomerase Type I": {"biological_target": "topoisomerase Type I", "test": "Plasmid relaxation assay", "type": "biochemical", "conditions": "NS = not statistically significant", "from_the_text": "Topoisomerases are nuclear enzymes that play essential roles in DNA replication, transcription, chromosome segregation, and recombination. Type I topoisomerases (classified into three distinct subfamilies—Type IA, IB, and IC based on structural considerations) are enzymes which make single-stranded cuts in DNA. DNA topoisomerases are important targets of approved and experimental anti-cancer agents. The protocol described here are of assays used to assess the ability of GS compounds to inhibit topoisomerase Type I activity based on relaxation of supercoiled DNA.\nPlasmid DNA is a circular double-stranded DNA molecule that is mainly found in bacteria and has the ability to self-replicate on its own. Bacteria may have one or more copies of plasmid DNA that help them survive adverse conditions, as they usually carry antibiotic resistance genes. Even with the help of plasmids being transferred from bacterium to bacterium, it is possible to transfer information that contributes to their survival.\nWhen plasmid DNA runs in an electrophoresis gel it appears mainly in three configurations: (1) The supercoiled conformation, in which the plasmid is intact (without fractures), is its most compact form; (2) The open circular, relaxed conformation, to which it goes when single-stranded fractures are caused. This is caused either from enzymatic or other factors (e.g., free radicals) that have the ability to cause DNA breakage; (3) The linear configuration to which it goes when it has double-stranded fractures. These configurations run at different speeds in an electrophoresis gel. The smaller the configuration, the faster it penetrates the agarose pores. […]\nThe ability of GS compounds to inhibit topoisomerase Type I activity was assessed based on the relaxation of supercoiled DNA as previously described (Kouka, Paraskevi et al., Oxid Med Cell Longev. 2019, Article ID 1870965). […] Finally, the gels were exposed to UV, the MultiImage Light Cabinet (Alpha Innotech, San Leandro, CA, USA) was used to capture the gel photos, and the results were analyzed with the Alpha View suite. […]"}}}
{"smiles": "C/C=C(/C=O)[C@@H](CC=O)CC(=O)OCCCCCCCCCCCCCCCC", "note": "[GS26, (3S,4E)-4-formyl-3-(2-oxoethyl)-4-hexenoic acid hexadecyl ester]", "values": [{"measurement": "inhibition at 50 µM", "setting": "HepG2 liver cancer cells", "result": 50, "unit": "%"}]}
{"smiles": "C/C=C(/C=O)[C@@H](CC=O)CC(=O)OCCCSC", "note": "[GS28, (3S,4E)-4-formyl-3-(2-oxoethyl)-4-hexenoic acid 3-(methylthio)propyl ester]", "values": [{"measurement": "Effectiveness to suppress HepG2 cell growth (cell growth inhibition)", "setting": "HepG2 liver cancer cells; 50 uM, 24 h", "result": "best efficacy"}, {"measurement": "inhibition at 50 µM", "setting": "HepG2 liver cancer cells", "result": 69.7, "unit": "%"}]}
{"smiles": "C/C=C(/C=O)[C@@H](CC=O)CC(=O)SCCc1ccccc1", "note": "[GS27, S-phenethyl (3S,4E)-4-formyl-3-(2-oxoethyl)hex-4-enethioate]", "values": [{"measurement": "inhibition at 50 µM", "setting": "HepG2 liver cancer cells", "result": 40.9, "unit": "%"}]}
{"smiles": "C/C=C1/[C@H](OC2OC(CO)C(O)C(O)C2O)OC=C(C(=O)O)[C@H]1CC(=O)OCCc1ccc(O)c(O)c1", "note": "(stereo in doubt) [GS6, (2S,4S,E)-4-(2-(3,4-dihydroxyphenethoxy)-2-oxoethyl)-3-ethylidene-2{[(2R,3S,4R,5R,6S)-3,4,5-trihydroxy-6-(hydroxymethyl)tetrahydro-2H-pyran-2-yl]oxy}-3,4dihydro-2H-pyran-5-carboxylic acid]", "values": [{"measurement": "Plasmid Relaxation Assay IC50", "setting": "topoisomerase Type I", "result": 5.94, "unit": "μg extract/mL"}]}
{"smiles": "C/C=C1/[C@H](O[C@@H]2O[C@H](CO)[C@@H](O)[C@H](O)[C@H]2O)OC=C(C(=O)OC)[C@H]1CC(=O)OCCc1ccc(O)c(O)c1", "note": "[GS1, oleuropein]", "values": [{"measurement": "Plasmid Relaxation Assay IC50", "setting": "topoisomerase Type I", "result": 9.91, "unit": "μg extract/mL"}]}
{"smiles": "C/C=C(/C=O)[C@@H](CC=O)CC(=O)OCCc1ccc(O)c(O)c1", "note": "[GS17, (3S,4E)-4-formyl-3-(2-oxoethyl)-4-hexenoic acid 2-(3,4-dihydroxyphenyl)ethyl ester, reference compound]", "values": [{"measurement": "Plasmid Relaxation Assay IC50", "setting": "topoisomerase Type I", "result": 9.5, "unit": "μg extract/mL"}]}
{"smiles": "C/C=C(/C=O)[C@@H](CC=O)CC(=O)OCCOc1ccccc1", "note": "[GS24, (3S,4E)-4-formyl-3-(2-oxoethyl)-4-hexenoic acid 2-phenoxyethyl ester]", "values": [{"measurement": "inhibition at 50 µM", "setting": "HepG2 liver cancer cells", "result": 57.9, "unit": "%"}]}
